{
  "source": "paper PMC7571068",
  "about": "“Antiproliferative and Pro-Apoptotic Effect of Uvaol in Human Hepatocarcinoma HepG2 Cells by Affecting G0/G1 Cell Cycle Arrest, ROS Production and AKT/PI3K Signaling Pathway” (Molecules, 2020)",
  "key": {"WRL68 cells [1]": {"system": "WRL68 cells", "test": "MTT cytotoxicity assay", "assay_type": "cell-based", "conditions": "Homo sapiens, mean ± SEM (n = 9)", "method": "(§1) MTT assay was performed as described by Pérez-Jiménez et al.. Briefly, samples containing 200 µL cell suspension (1 × 10^4 cells/well) were cultured in 96 well plates, in triplicate of three populations of the both cell lines. Subsequent to adherence of the cells within 12 h of incubation, Uvaol was added to the wells at a concentration between 0–140 μg/mL and maintained during 24, 48 and 72 h. MTT was dissolved in the medium and added to the wells at a final concentration of 0.5 mg/mL. Following 2 h of incubation, the generated formazan was dissolved in DMSO. Absorbance was measured at 570 nm in a multiplate reader (Bio-tek®, Winooski, VT, USA). The concentrations that caused 20%, 50% and 80% of inhibition of cell viability (IC20, IC50 and IC80) were calculated following the formula: % […] = (A0 − AT)/A0·100, where A0 is the control absorbance (100% of cell viability) and AT is de absorbance of the incubated cells with the different concentrations of uvaol. OriginPro 8 (OriginLab Corporation, Northampton, MA, USA) was used to performance a dose-response analysis by the following formula: y=A1+ A2− A1/1+10^(Log x0−x)p\n(§2) In which Logx0 is the center of the curve, p the slope, A1 the lower asymptote and A2 the upper asymptote in the adjustment model described."}, "HepG2 cells [2]": {"system": "HepG2 cells", "test": "MTT cytotoxicity assay", "assay_type": "cell-based, human", "conditions": "for IC20 / IC50 / IC80: Homo sapiens, mean ± SEM (n = 9)", "method": "as §1, §2"}, "[3]": {"system": "AKT/PI3K and ERK1/2/MAPK signaling pathways in HepG2 cells", "test": "Muse PI3K/MAPK Dual Pathway activation assay", "assay_type": "cell-based, human", "conditions": "HepG2, IC50, 24 h", "method": "(§3) The Muse® PI3K/MAPK Dual Pathway activation kit purchased from Millipore (Billerica, MA, USA) was employed to examine both the PI3K and MAPK signaling pathways simultaneously using the Muse Cell Analyzer (Merck-Millipore®, Burlington, MA, USA). The protocol followed was performed as the manufacturer instructions. The samples (quadruplicates for three different populations of each cell line) were analyzed in the Muse^TM Cell Analyzer."}, "[4]": {"system": "AKT/PI3K and ERK1/2/MAPK signaling pathways in WRL68 cells", "test": "Muse PI3K/MAPK Dual Pathway activation assay", "assay_type": "cell-based, human", "conditions": "WRL68, IC50, 24 h", "method": "as §3"}, "HepG2 cells [5]": {"system": "HepG2 cells", "test": "Wound healing (scratch) assay", "assay_type": "cell-based, human", "conditions": "HepG2, IC50 concentration, 0-42 h", "method": "(§4) The wound healing or scratch assay was used to assess the migration capacity of the WRL68 and HepG2 cell lines. With this objective, 3 × 10^5 cells were seeded per well in a 6-well plate in triplicate for each cell line. When the populations reached a confluence of 80–90%, a sterile pipette tip was used to disrupt in a straight line (make a wound) the layer of cells attached to the culture surface. Subsequently, it was washed with PBS to prevent the cells that had been lifted from being able to rejoin. […] Quantification of wound healing was performed by using the MRI-Wound Healing Tool for ImageJ software (ImageJ 1.53a version)."}, "WRL68 cells [6]": {"system": "WRL68 cells", "test": "Wound healing (scratch) assay", "assay_type": "cell-based, human", "conditions": "WRL68, IC50 concentration, 0-42 h", "method": "as §4"}, "WRL68 cells [7]": {"system": "WRL68 cells", "test": "Morphological changes, optical microscopy", "assay_type": "cell-based, human", "conditions": "WRL68, IC50, 24 h", "method": "Optical microscopy (Olympus® model CX22LED, Tokyo, Japan) images of the cultures were obtained in the mentioned conditions at 10 and 40 magnifications for the cell line each after 24 h of the treatment’s application."}, "lymphoma cells (U937)": {"system": "lymphoma cells (U937)", "set-up": "method as in PMID 21142067", "conditions": "U937, 10 and 100 µM; cited from earlier work"}, "[8]": {"system": "MDA-MB-231 (triple negative breast cancer)", "set-up": "method as in PMID 21142067", "conditions": "MDA-MB-231, 10 and 100 µM; cited from earlier work"}, "MCF-7 cells": {"system": "MCF-7 cells", "set-up": "method as in PMID 21142067", "conditions": "MCF-7, 10 and 100 µM; cited from earlier work"}},
  "data": [
    {"smiles": "C[C@H]1[C@H](C)CC[C@]2(CO)CC[C@]3(C)C(=CC[C@@H]4[C@@]5(C)CC[C@H](O)C(C)(C)[C@@H]5CC[C@]43C)[C@H]12", "note": "[uvaol, urs-12-ene-3,28-diol]", "values": [
      {"measurement": "IC20", "setting": "WRL68 cells [1]; WRL68, 24 h exposure", "result": "27.6 ± 2.9", "unit": "µg/mL"},
      {"measurement": "IC50", "setting": "WRL68 cells [1]; WRL68, 24 h exposure", "result": 54.3, "unit": "µg/mL"},
      {"measurement": "IC20", "setting": "WRL68 cells [1]; WRL68, 48 h exposure", "result": "13.3 ± 0.8", "unit": "µg/mL"},
      {"measurement": "IC50", "setting": "WRL68 cells [1]; WRL68, 48 h exposure", "result": "35.9 ± 0.7", "unit": "µg/mL"},
      {"measurement": "IC80", "setting": "WRL68 cells [1]; WRL68, 48 h exposure", "result": "79.8 ± 0.6", "unit": "µg/mL"},
      {"measurement": "IC20", "setting": "WRL68 cells [1]; WRL68, 72 h exposure", "result": "6.8 ± 0.6", "unit": "µg/mL"},
      {"measurement": "IC50", "setting": "WRL68 cells [1]; WRL68, 72 h exposure", "result": "19.5 ± 1.1", "unit": "µg/mL"},
      {"measurement": "IC80", "setting": "WRL68 cells [1]; WRL68, 72 h exposure", "result": "47.2 ± 4.3", "unit": "µg/mL"},
      {"measurement": "IC50 in control cells (WRL68) relative to tumor cells (HepG2)", "setting": "HepG2 cells [2]; 24 h IC50 WRL68 vs HepG2", "result": "more than twice"},
      {"measurement": "IC20", "setting": "HepG2 cells [2]; HepG2, 24 h exposure", "result": "8.2 ± 1.8", "unit": "µg/mL"},
      {"measurement": "IC50", "setting": "HepG2 cells [2]; HepG2, 24 h exposure", "result": 25.2, "unit": "µg/mL"},
      {"measurement": "IC20", "setting": "HepG2 cells [2]; HepG2, 48 h exposure", "result": "6.4 ± 0.4", "unit": "µg/mL"},
      {"measurement": "IC50", "setting": "HepG2 cells [2]; HepG2, 48 h exposure", "result": "20 ± 0.3", "unit": "µg/mL"},
      {"measurement": "IC80", "setting": "HepG2 cells [2]; HepG2, 48 h exposure", "result": "61.7 ± 5.3", "unit": "µg/mL"},
      {"measurement": "IC20", "setting": "HepG2 cells [2]; HepG2, 72 h exposure", "result": "4 ± 0.2", "unit": "µg/mL"},
      {"measurement": "IC50", "setting": "HepG2 cells [2]; HepG2, 72 h exposure", "result": "14.1 ± 1", "unit": "µg/mL"},
      {"measurement": "IC80", "setting": "HepG2 cells [2]; HepG2, 72 h exposure", "result": "39.2 ± 2.4", "unit": "µg/mL"},
      {"measurement": "change in percentage of cells that only activated ERK1/2/MAPK", "setting": "[3]", "result": "not altered"},
      {"measurement": "decrease in cells that only activated AKT/PI3K", "setting": "[3]", "result": 25, "unit": "%"},
      {"measurement": "increase in cells with activated dual pathway (MAPK and PI3K)", "setting": "[3]", "result": 9, "unit": "%"},
      {"measurement": "net balance: increase of ERK1/2/MAPK signaling pathway", "setting": "[3]", "result": 9, "unit": "%"},
      {"measurement": "net balance: inhibition of AKT/PI3K signaling pathway", "setting": "[3]", "result": 16, "unit": "%"},
      {"measurement": "change in percentage of cells in which only ERK1/2/MAPK was activated", "setting": "[4]", "result": "not altered"},
      {"measurement": "decrease in cells that only activated the AKT/PI3K pathway", "setting": "[4]", "result": 22, "unit": "%"},
      {"measurement": "increase in cells that activated the dual pathway (MAPK and PI3K)", "setting": "[4]", "result": 25, "unit": "%"},
      {"measurement": "net balance: activation of the ERK1/2/MAPK signaling pathway", "setting": "[4]", "result": 25, "unit": "%"},
      {"measurement": "net balance: modification of the PI3K pathway", "setting": "[4]", "result": "no modification"},
      {"measurement": "wound closure (cell migration)", "setting": "HepG2 cells [5]", "result": "the wound remains until the end of the trial"},
      {"measurement": "wound closure (cell migration)", "setting": "WRL68 cells [6]", "result": "wound healing was maintained during more hours than the control group"},
      {"measurement": "cell morphology change", "setting": "WRL68 cells [7]", "result": "become rounded and have cytoplasmic projections"},
      {"measurement": "induction of apoptosis", "setting": "lymphoma cells (U937)", "result": "induced apoptosis"},
      {"measurement": "induction of apoptosis", "setting": "[8]", "result": "did not show this effect"},
      {"measurement": "induction of apoptosis", "setting": "MCF-7 cells", "result": "did not show this effect"}
    ]}
  ]
}
